Counter-ions that a name gives are not always drawn. Like-named read-outs stand apart in the source and are kept apart here.
Legend:
HTT = assay: Protein abundance, HiBit-assay system (Promega), HTT; format: cell-based; settings: Table 6; HiBiT-modified K562 cells, 24 hours
Excerpt: In some embodiments, a compound of Formula (I) or (II) or a pharmaceutically acceptable salt thereof, e.g., as described herein, modulates the expression of a target protein (e.g., HTT or MYB) in a reference cell or sample. In an embodiment, a compound of Formula (I) or (II) or a pharmaceutically acceptable salt thereof, e.g., as described herein, increases the expression of a target protein (e.g., HTT or MYB) in a reference cell or sample. In an embodiment, a compound of Formula (I) or (II) or a pharmaceutically acceptable salt thereof, e.g., as described herein, decreases the expression of a target protein (e.g., HTT or MYB) in a reference cell or sample. The effect of an exemplary compound of Formula (I) or (II) on protein abundance may be measured using a standard assay for measuring protein abundance, such as the HiBit-assay system (Promega). In this assay, percent response for each respective cell line may be as calculated at each compound concentration as follows: % response=100*(S−PC)/(NC−PC). For the normalized response at each concentration, a four-parameter logistical regression may be fit to the data and the response may be interpolated at the 50% value to determine a concentration for protein abundance at 50% (IC50) an untreated control. In an embodiment, a compound of Formula (I) or (II) or a pharmaceutically acceptable salt thereof, e.g., as described herein, has a protein abundance response less than 100 nM. In an embodiment, a compound of Formula (I) or (II) or a pharmaceutically acceptable salt thereof, e.g., as described herein, has a protein abundance response between 100-1000 nM. In an embodiment, a compound of Formula (I) or (II) or a pharmaceutically acceptable salt thereof, e.g., as described herein, has a protein abundance response greater than 1000 nM. In an embodiment, a compound of Formula (I) or (II) or a pharmaceutically acceptable salt thereof, e.g., as described herein, has a protein abundance response greater than 10 uM. In an embodiment, a compound of Formula (I) or (II) or a pharmaceutically acceptable salt thereof, e.g., as described herein, modulates the protein abundance of a target protein by about 1%, 5%, 10%, 15%, 20%, 25%, 30%, 35%, 40%, 45%, 50%, 55%, 60%, 65%, 70%, 75%, 80%, 85%, 90%, 95%, 99% or more, e.g., compared with a reference compound.

K562 cells = assay: Cell Titer Glo 2.0 cell viability assay, K562; format: cell-based; settings: Homo sapiens, 72 hours incubation
Experimental: Compounds described herein were screened for toxicity in K562 (human chronic myelogenous leukemia) and SH-SY5Y (human neuroblastoma) cells using a Cell Titer Glo 2.0 assay.
• Promega CellTiter-Glo® 2.0 Cell Viability Assay (cat #G9241) • Corning 384-well TC-treated microplates (cat #3570)
Cells were plated at 500 cells/well (K562 cells) in 45 μL of IMDM supplemented with 10% FBS in a 384-well opaque plate. Wells containing only medium were used as a blank control. Test compounds (e.g., compounds of Formula (I) or (II)) were first serially diluted in DMSO then diluted 1:100 with EIDM+10% FBS. The final concentration of DMSO was 0.1% in each well. The cells were incubated for 72 hours at 37° C. and 5% CO2 before assaying with Cell Titer Glo 2.0 reagent.

HTT mRNA = assay: Splicing RT-qPCR assay, HTT canonical (CJ) and alternative (AJ) junction mRNA; format: cell-based, human; settings: Homo sapiens, A673 or K562 cells, 24 hours compound treatment; for IC50: read-out: HTT CJ (IC50, decrease in canonical junction mRNA); for AC50: read-out: HTT AJ (AC50, increase in alternative junction mRNA)
Procedure, shortened: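 One-step RT-qPCR on cell lysates, CJ and AJ isoforms quantified; housekeeping normalization GAPDH/GUSB (K562) or PPIA (A673). Cells: A673 in DMEM/10% FBS or K562 in IMDM/10% FBS. Compounds 11-pt 3-fold, top 10 uM, 24 h, 37 °C, 5% CO2.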

| SMILES | IC50 (HTT) [nM] | GI50 (K562 cells) [nM] | IC50 (HTT mRNA; 24 h) [nM] | AC50 (HTT mRNA) [nM] | IC50 (HTT mRNA) [nM] |
| --- | --- | --- | --- | --- | --- |
| Cc1cn2nc(NC(=O)c3ccc(C4CCNCC4)c4cc(C)oc34)cc(C)c2n1 [Compound 118] | 100 to 1000 | 100 to 1000 | – | – | – |
| Cc1cn2nc(NC(=O)c3ccc(C4CCNCC4)c4ccoc34)cc(C)c2n1 [Compound 119] | 1000 to 10000 | 1000 to 10000 | 1000 to 10000 | > 10000 | – |
| Cc1cn2cc(NC(=O)c3ccc(N4CCNCC4)c4nc(C)oc34)cc(F)c2n1 [Compound 140] | 1000 to 10000 | 1000 to 10000 | – | – | – |
| Cc1cn2cc(NC(=O)c3ccc(N4CCNCC4)c4oc(C)nc34)cc(F)c2n1 [Compound 141] | 100 to 1000 | 100 to 1000 | < 100 | < 100 | – |
| Cc1cn2cc(NC(=O)c3ccc(N4CCNCC4)c4cc(C)oc34)cc(F)c2n1 [Compound 142] | 100 to 1000 | 100 to 1000 | 1000 to 10000 | 1000 to 10000 | – |
| Cc1cn2cc(NC(=O)c3ccc(N4CCNCC4)c4cn(C)nc34)cc(F)c2n1 [Compound 143, N-{8-fluoro-2-methylimidazo[1,2-a]pyridin-6-yl}-2-methyl-4-(piperazin-1-yl) indazole-7-carboxamide] | < 100 | 100 to 1000 | – | – | – |
| Cc1cn2cc(NC(=O)c3ccc(C4CCNCC4)c4cc(C)oc34)cc(F)c2n1 [Compound 145] | 1000 to 10000 | – | 1000 to 10000 | 1000 to 10000 | – |
| Cc1cn2nc(NC(=O)c3ccc(N4CCNCC4)c4cc(C)oc34)cc(C)c2n1 [Compound 148] | 1000 to 10000 | 1000 to 10000 | 1000 to 10000 | 1000 to 10000 | – |
| Cc1cn2cc(NC(=O)c3ccc(C4CCNCC4)c4ccoc34)cc(F)c2n1 [Compound 149] | 1000 to 10000 | 100 to 1000 | 1000 to 10000 | 1000 to 10000 | – |
| Cc1cn2cc(NC(=O)c3ccc(N4CCN(C)CC4)c4cc(C)oc34)cc(F)c2n1 [Compound 189] | > 10000 | 100 to 1000 | 1000 to 10000 | 1000 to 10000 | – |
| Cc1cn2cc(NC(=O)c3ccc(N4CCNC(C)C4)c4cc(C)oc34)cc(F)c2n1 (stereo not drawn) [Compound 190] | 100 to 1000 | 100 to 1000 | 100 to 1000 | 100 to 1000 | – |
| Cc1cn2cc(NC(=O)c3ccc(N4CCN(C)C(C)C4)c4cc(C)oc34)cc(F)c2n1 (stereo not drawn) [Compound 191] | – | 100 to 1000 | 100 to 1000 | 1000 to 10000 | – |
| CCC1CN(c2ccc(C(=O)Nc3cc(F)c4nc(C)cn4c3)c3oc(C)cc23)CCN1 (stereo not drawn) [Compound 192] | 1000 to 10000 | 100 to 1000 | 1000 to 10000 | 1000 to 10000 | – |
| Cc1cn2cc(NC(=O)c3ccc(N4CCNC(C)(C)C4)c4cc(C)oc34)cc(F)c2n1 [Compound 193] | 1000 to 10000 | 100 to 1000 | 1000 to 10000 | 1000 to 10000 | – |
| Cc1cn2cc(NC(=O)c3ccc(N4CCNC5(CC5)C4)c4cc(C)oc34)cc(F)c2n1 [Compound 194] | 1000 to 10000 | 100 to 1000 | – | – | – |
| Cc1cn2cc(NC(=O)c3ccc(N4CC(C)(C)NC(C)(C)C4)c4cc(C)oc34)cc(F)c2n1 [Compound 195] | > 10000 | 100 to 1000 | > 10000 | > 10000 | – |

| SMILES | IC50 (HTT) [nM] | GI50 (K562 cells) [nM] | IC50 (HTT mRNA; 24 h) [nM] | AC50 (HTT mRNA) [nM] | IC50 (HTT mRNA) [nM] |
| --- | --- | --- | --- | --- | --- |
| CCNC1CCN(c2ccc(C(=O)Nc3cc(F)c4nc(C)cn4c3)c3oc(C)cc23)CC1 [Compound 196] | 100 to 1000 | < 100 | – | – | – |
| Cc1cn2cc(NC(=O)c3ccc(N4CCC(NC(C)(C)C)CC4)c4cc(C)oc34)cc(F)c2n1 [Compound 197] | > 10000 | 100 to 1000 | > 10000 | > 10000 | – |
| CC1=CC2C(N3CCC(N(C)C)CC3)=CC=C(C(=O)Nc3cc(F)c4nc(C)cn4c3)C2O1 (stereo not drawn) [Compound 198] | 1000 to 10000 | < 100 | – | – | – |
| Cc1cn2cc(NC(=O)c3ccc(N4CCN5CCCC5C4)c4cc(C)oc34)cc(F)c2n1 (stereo not drawn) [Compound 199] | 1000 to 10000 | 100 to 1000 | 100 to 1000 | 100 to 1000 | – |
| Cc1cn2cc(NC(=O)c3ccc(C4CCNCC4)c4cn(C)nc34)cc(F)c2n1 [Compound 208] | 100 to 1000 | 100 to 1000 | – | – | – |
| Cc1cc2c(N3CCNCC3)ccc(C(=O)Nc3cc(F)c4cn(C)nc4c3)c2o1 [Compound 217] | > 10000 | 100 to 1000 | > 10000 | > 10000 | – |
| CCn1cc2c(N3CC[C@@H](NC)C3)ccc(C(=O)Nc3cc(Cl)c4nc(C)cn4c3)c2n1 [Compound 556, N-{8-chloro-2-methylimidazo[1,2-a]pyridin-6-yl}-2-ethyl-4-[(3R)-3-(methylamino)pyrrolidin-1-yl]indazole-7-carboxamide] | 1000 to 10000 | 100 to 1000 | > 10000 | > 10000 | – |
| CCn1cc2c(N3CCC(N)(CC)CC3)cc(F)c(C(=O)Nc3cc(F)c4nc(C)cn4c3)c2n1 [Compound 557, 4-(4-amino-4-ethylpiperidin-1-yl)-2-ethyl-6-fluoro-N-{8-fluoro-2-methylimidazo[1,2-a]pyridin-6-yl}indazole-7-carboxamide] | 100 to 1000 | < 100 | 100 to 1000 | 100 to 1000 | – |
| CCn1cc2c(N3CCC(N[C@H]4C[C@@H](O)C4)CC3)ccc(C(=O)Nc3cc(F)c4nc(C)cn4c3)c2n1 [Compound 559, 2-ethyl-N-{8-fluoro-2-methylimidazo[1,2-a]pyridin-6-yl}-4-(4-{[(1s,3s)-3-hydroxycyclobutyl]amino}piperidin-1-yl) indazole-7-carboxamide] | 100 to 1000 | < 100 | 1000 to 10000 | 1000 to 10000 | – |
| CCn1cc2c(N3CCC(N[C@H]4C[C@H](O)C4)CC3)ccc(C(=O)Nc3cc(F)c4nc(C)cn4c3)c2n1 [Compound 560, 2-ethyl-N-{8-fluoro-2-methylimidazo[1,2-a]pyridin-6-yl}-4-(4-{[(1r,3r)-3-hydroxycyclobutyl]amino}piperidin-1-yl) indazole-7-carboxamide] | 1000 to 10000 | < 100 | 1000 to 10000 | 1000 to 10000 | – |
| Cc1cn2cc(NC(=O)c3ccc(N4CC[C@@H](N5CCNCC5)C4)c4cn(C)nc34)cc(F)c2n1 [Compound 562, N-{8-fluoro-2-methylimidazo[1,2-a]pyridin-6-yl}-2-methyl-4-[(3R)-3-(piperazin-1-yl)pyrrolidin-1-yl]indazole-7-carboxamide hydrochloride] | > 10000 | 1000 to 10000 | > 10000 | > 10000 | – |
| Cc1cn2cc(NC(=O)c3ccc(N4CC5NC5C4)c4cn(C)nc34)cc(F)c2n1 (stereo not drawn) [Compound 563, 4-{3,6-diazabicyclo[3.1.0]hexan-3-yl}-N-{8-fluoro-2-methylimidazo[1,2-a]pyridin-6-yl}-2-methylindazole-7-carboxamide] | 100 to 1000 | 100 to 1000 | – | 100 to 1000 | 100 to 1000 |
| Cc1cn2cc(NC(=O)c3ccc(N4C5CNCC54)c4cn(C)nc34)cc(F)c2n1 (stereo not drawn) [Compound 564, 4-{3,6-diazabicyclo[3.1.0]hexan-6-yl}-N-{8-fluoro-2-methylimidazo[1,2-a]pyridin-6-yl}-2-methylindazole-7-carboxamide] | 100 to 1000 | 100 to 1000 | – | 100 to 1000 | 100 to 1000 |
| CCn1cc2c(N3CCNCC3)ccc(C(=O)Nc3cc(F)c4nc(C)c(F)n4c3)c2n1 [Compound 565, N-{3,8-difluoro-2-methylimidazo[1,2-a]pyridin-6-yl}-2-ethyl-4-(piperazin-1-yl) indazole-7-carboxamide; trifluoroacetic acid] | 1000 to 10000 | 1000 to 10000 | > 10000 | > 10000 | – |
| CCn1cc2c(N3CCNCC3)ccc(C(=O)Nc3cn4cc(C)nc4c(Oc4ccccc4)n3)c2n1 [Compound 566, 2-ethyl-N-{2-methyl-8-phenoxyimidazo[1,2-a]pyrazin-6-yl}-4-(piperazin-1-yl) indazole-7-carboxamide] | 1000 to 10000 | 100 to 1000 | 1000 to 10000 | 1000 to 10000 | – |

From US20250154169A1, “COMPOUNDS AND METHODS FOR MODULATING SPLICING” (REMIX THERAPEUTICS INC., priority 2021, published 2025)
